The numbers were not newly measured in patent US20250114373A1, “[…] INSERT COMPRISING AN ANTIMICROBIAL AGENT” (OCULAR THERAPEUTIX, INC., priority 2022, published 2025), which cites them from elsewhere.

Some test systems named below: S. aureus; S. pneumoniae; S. epidermidis; H. influenzae.
What all share (conditions): values from Proksch, 2009

For the molecule `N[C@@H]1CCCCN(c2c(F)cc3c(=O)c(C(=O)O)cn(C4CC4)c3c2Cl)C1` [Besifloxacin, (R)-7-(3-aminohexahydro-1H-azepin-1-yl)-8-chloro-1-cyclopropyl-6-fluoro-1,4-dihydro-4-oxo-3-quinolinecarboxylic acid], the MIC90 entry is reported as “(MIC90 of 0.25 μg/mL” with S. aureus, “(MIC90 of 0.125 μg/mL” with S. pneumoniae, “(MIC90 of 0.5 μg/mL” with S. epidermidis and “(MIC90 of 0.06 μg/mL” in the data set on H. influenzae.
